“Also recorded” adds a separate entry of the source.
Legend:
[1] = test system: Lgr5+ supporting cells isolated from the cochlea; test: Expansion of Lgr5-GFP inner ear progenitor cells in Matrigel based 3D culture; type: cell-based, mouse; conditions: for use in place of VPA: data not shown; for Lgr5-GFP expression, effect of addition / cell proliferation, effect of addition: neonatal Lgr5 inner ear progenitor cells; for importance of the factor for Lgr5-GFP expression / importance of the factor for cell proliferation: factor removed from the culture medium; for GFP+ percentage / total number of cells / GFP+ cell number: named factor removed from EFICVP6, 10 days
Protocol: Cell culture: Heterozygous Lgr5-EGFP-IRES-CreERT2 mice were obtained from Jackson Labs, and neonatal P2-P5 mice were used for cell isolation. Organ of Corti was isolated from Lgr5-GFP mice and further dissociated into single cells using trypsin. Cells were then cultured as previously described (Yin et al, 2014). Briefly, cells were entrapped in Matrigel and plated at the center of wells in a 24-well plate. Following polymerization of Matrigel, 500 μl of culture media (Advanced DMEM/F12 with N2 and B27) was added, containing growth factors including EGF (50 ng/ml) (epidermal growth factor), bFGF (20 ng/ml) (fibroblast growth factor), and IGF1 (50 ng/ml) (insulin-like growth factor 1), and small molecules including CHIR99021 (5 μM), valproic acid (1 mM), 2-phospho-L-ascorbic acid (280 μM), and 616452 (2 μM). Y-27632 (10 μM) was added for the first 2 days. In some experiments, bFGF was used at 50 ng/ml.
For single cell isolation, the organs of Corti were then treated with Cell Recovery Solution (Corning) for 1 h to separate cochlear epithelium from the underlying mesenchyme. Epithelia were then collected and treated with Trypsin (Life Technologies) for 15-20 minutes at 37° C. Single cells obtained by mechanical trituration were filtered by cell strainer (40 μm) and washed with cell culture media. For FACS sorting of Lgr5-high and Lgr5-Low cells, FACS ARIA (BD) was used and Lgr5-GFP was used as indicator of Lgr5 level. Sorted single cells were cultured in Matrigel in inner ear cell culture media with supplement growth factors and small molecules. Y-27632 was added in the first 2 days.
FACS analysis: Cell culture media was removed and Trypsin was added. After incubation at 37° C. for 10-20 min, colonies were dissociated into single cells. Live-cell number were counted using a hemocytometer and trypan blue staining. The cells were then stained with propidium iodide (PI) and analyzed with flow cytometry. The number of GFP-positive cells was calculated by multiplying the total number of cells by the percentage of GFP-positive cells.

[2] = test system: expanded Lgr5-positive cells; test: Differentiation of expanded Lgr5-positive cells to hair cells; type: cell-based, mouse; conditions: for effect on differentiation of hair cells: in differentiation media
Protocol: Differentiation protocol: For differentiation of expanded Lgr5-positive cells, following 10 days of culture in the cell expansion condition (EFICVP6), the cell colonies were transferred to fresh Matrigel and further cultured in differentiation media. Differentiation media contains Notch pathway inhibitor (e.g. DAPT, D, 5 μM, or LY411575, LY, 5 μM), with or without Gsk3β inhibitor (e.g. CHIR99021). Media were changed every other day. Following another 6-10 days of incubation with differentiation media, the colonies were harvested for qPCR analysis or fixed with 4% PFA and immunostained with hair cell markers Myo7a and Prestin.
RNA extraction and quantitative real-time PCR (qPCR): RNA was isolated from cultured cells (RNeasy Mini Kit; Qiagen) according to the manufacturer's protocol. Quantitative real-time PCR was performed with QuantiTect Probe PCR kit (Qiagen) using commercially available primers and TaqMan probes (Myo7a and Hprt Life Technologies).
Immunocytochemistry staining: Colonies were fixed at room temperature in 4% paraformaldehyde/PBS for 15-20 min and then washed twice with PBS containing 0.1% BSA. Cells were then permeabilized with 0.25% Triton X-100 in PBS in 4° C. for 30 minutes. Following 2 washes with PBS containing 0.1% BSA, the cells were incubated with blocking solution (Power Block, Biogenex) for 1 h. Diluted primary antibodies (in Power Block solution) was applied for 4 h at room temperature or overnight at 4° C. Primary antibodies used were Myosin VIIA (1:500, Rabbit polyclonal from Proteus Biosciences) and Prestin (1:400, Goat polyclonal from Santa Cruz). After 3 washes for 5 minutes each, secondary antibodies (Alexafluor 594 and 647-conjugated; Invitrogen) were added at 1:500 dilution and incubated at room temperature for 30 minutes. Nuclei were visualized with 4,6-diamidino-2-phenylindole (DAPI, Vector Laboratories). Staining was visualized with inverted fluorescence microscope (EVOS; Advanced Microscopy Group).

patients = conditions: cited from earlier work
[3] = named factor removed, versus EFICVP6

With `O=C(CCCCCCNC(=O)c1cnc(N(c2ccccc2)c2ccccc2)nc1)NO` [ACY1215] the “use in place of VPA” value [1] was “does not work”.
In the case of `CC(C)(C)OC(=O)Nc1ccc(-c2cc(C(=O)NCCCCCCC(=O)NO)no2)cc1` [CAY10603], the “use in place of VPA” value [1] is reported as “does not work”.
In the case of `Nc1ncnc2c1c(I)cn2[C@@H]1O[C@H](CO)[C@@H](O)[C@H]1O` [5IT], the “Lgr5-GFP expression, effect of addition” value [1] is reported as “does not promote the expression of Lgr5-GFP”.
With IGF-1: insulin like growth factor 1 the “importance of the factor for Lgr5-GFP expression” value [1] was “marginal effect on cell proliferation or GFP maintenance”, the “importance of the factor for cell proliferation” value [1] was “marginal effect on cell proliferation or GFP maintenance; also recorded: marginal effect to promote cell proliferation” and the “importance of the factor for Lgr5-GFP expression” value ([1]; listed as IGF) was “marginal beneficial effect in promoting cell proliferation and GFP expression”. The “importance of the factor for cell proliferation” value ([1]; listed as IGF) was “marginal beneficial effect in promoting cell proliferation and GFP expression”, the “importance of the factor for Lgr5-GFP expression” value ([1]; listed as IGF1) was “marginal beneficial effect on cell proliferation and Lgr5 expression” and the “importance of the factor for cell proliferation” value ([1]; listed as IGF1) was “marginal beneficial effect on cell proliferation and Lgr5 expression”. For the same molecule, the “GFP+ percentage” value [1] was 53%, the “total number of cells” value [1] was 4.1×10^5 cells and the “effect on differentiation of hair cells” value [2] was “inhibit the differentiation of hair cells”.
For `CO[C@@H]1[C@H](N(C)C(=O)c2ccccc2)C[C@H]2O[C@]1(C)n1c3ccccc3c3c4c(c5c6ccccc6n2c5c31)C(=O)NC4` [PKC412], the “Lgr5-GFP expression, effect of addition” value [1] was “does not promote the expression of Lgr5-GFP”.
For `Cc1cc(N2CCOCC2)cc2[nH]c(-c3c(NC[C@@H](O)c4cccc(Cl)c4)cc[nH]c3=O)nc12` [BMS536924], the “Lgr5-GFP expression, effect of addition” value [1] was “does not promote the expression of Lgr5-GFP”.
For “EGF: epidermal growth factor (NSDSECPLSHDGYCLHDGVCMYIEALDKYACNCVVGYIGERCQYRDLKWWELR; UniProt P01133 971-1023, looked up)”, the “importance of the factor for Lgr5-GFP expression” value [1] was “less important for GFP expression”, the “importance of the factor for cell proliferation” value [1] was “important for cell proliferation; also recorded: greater impact on cell proliferation; also recorded: significant reduction in proliferation; also recorded: important to promote cell proliferation” and the “decrease of GFP+ cell number” value [1, 3] was ~2 fold. For the same molecule, the “decrease of total cell number” value [1, 3] was ~2 fold and the “effect on differentiation of hair cells” value [2] was “inhibit the differentiation of hair cells”.
In the case of `Cc1cc(NC(=O)c2cccc(NC(=O)/C=C/CN(C)C)c2)ccc1Nc1nccc(-c2cccnc2)n1` [JNK-IN8], the “Lgr5-GFP expression, effect of addition” value [1] is reported as “does not promote the expression of Lgr5-GFP”.
In the case of `CCOC(=O)C1=C(N)Oc2ccc(Cl)cc2C1C(C#N)C(=O)OCC` (stereo not shown) [SC79], the “Lgr5-GFP expression, effect of addition” value [1] is reported as “does not promote the expression of Lgr5-GFP”.
With `CNC(=O)c1ccc(C)c(-n2c(C)cc(OCc3ccc(F)cc3F)c(Br)c2=O)c1` [PH797804] the “Lgr5-GFP expression, effect of addition” value [1] was “does not promote the expression of Lgr5-GFP”.
In the case of `c1ccc2c(-c3cnn4cc(-c5ccc(N6CCNCC6)cc5)cnc34)ccnc2c1` [LDN193189], the “Lgr5-GFP expression, effect of addition” value [1] is reported as “does not promote the expression of Lgr5-GFP; also recorded: greatly decreased Lgr5-GFP expression”.
In the case of `O=c1ncn2nc(Sc3ccc(F)cc3F)ccc2c1-c1c(Cl)cccc1Cl` [VX745], the “Lgr5-GFP expression, effect of addition” value [1] is reported as “does not promote the expression of Lgr5-GFP”.
With `Cc1ccc2nc(NC(=O)CSc3nc4c(c(=O)n3-c3ccccc3)SCC4)sc2c1` [IWP-2] the “hair cell generation (Myosin VIIA and Prestin staining)” value ([2]; 10 days of differentiation) was “hair cell generation is rarely observed from cultured inner ear progenitor cells”.
With `O=C(NOC[C@H](O)CO)c1ccc(F)c(F)c1Nc1ccc(I)cc1F` [PD0325901] the “Lgr5-GFP expression, effect of addition” value [1] was “does not promote the expression of Lgr5-GFP”.
With bFGF: basic fibroblast growth factor the “importance of the factor for Lgr5-GFP expression” value [1] was “less important for GFP expression; also recorded: important for GFP expression”, the “importance of the factor for cell proliferation” value [1] was “important for cell proliferation; also recorded: greatly impacted cell proliferation; also recorded: greatest effect on proliferation; also recorded: important to promote cell proliferation” and the “GFP+ cell number” value [1] was 1.4×10^4 cells. The “GFP+ percentage” value [1] was 32%, the “decrease of GFP+ cell number” value [1, 3] was 20 fold and the “decrease of GFP+ percentage” value [1, 3] was ~2 fold. For the same molecule, the “decrease of total cell number” value [1, 3] was 10 fold, the “cell proliferation, effect of addition” value [1] was “promotes the proliferation of Lgr5 inner ear progenitor cells; also recorded: increased cell proliferation” and the “effect on differentiation of hair cells” value [2] was “inhibit the differentiation of hair cells”.
In the case of `N.N.[Cl][Pt][Cl]` [Cisplatin], the “high frequency hearing loss (>8 kHZ)” value (patients; human, in vivo) is listed as ≤ 90%.
In the case of `C[C@@H]1CCN(C(=O)CC#N)C[C@@H]1N(C)c1ncnc2[nH]ccc12` [Tofacitinib], the “Lgr5-GFP expression, effect of addition” value [1] is reported as “does not promote the expression of Lgr5-GFP”.
With `CN1CCc2c(c3ccccc3n2Cc2ccc(C(=O)NO)cc2)C1` [Tubastatin A] the “use in place of VPA” value [1] was “does not work”.
With Laminin 511: added into Matrigel the “Lgr5-GFP expression, effect of addition” value [1] was “promotes GFP expression”.
For `Cc1cccc(-c2n[nH]cc2-c2ccc3ncccc3n2)n1` [compound 616452, 2-(3-(6-Methylpyridin-2-yl)-1H-pyrazol-4-yl)-1,5 napththyridine], the “passage / extended culture of the cells” value [1] was “enables the passage of cultured inner ear progenitor cells; also recorded: enables extended culture of the cells”, the passage of colonies [1] was “up to 5 generations” and the “colony size and GFP intensity” value ([1]; added on EFICVP) was “increases the intensity of Lgr5-GFP and the size of colonies; also recorded: tend to grow larger and possess brighter GFP expression than that in control conditions”. The “importance of the factor for cell proliferation” value [1] was “greater impact on cell proliferation; also recorded: significant reduction in proliferation; also recorded: important to promote cell proliferation”, the “GFP+ cell number” value [1] was 9.8×10^4 cells and the “total number of cells” value [1] was 1.7×10^5 cells. The “decrease of GFP+ cell number” value [1, 3] was ~3 fold, the “decrease of total cell number” value [1, 3] was ~3 fold and the “Lgr5-GFP expression, effect of addition” value [1] was “does not promote the expression of Lgr5-GFP; also recorded: didn't increase Lgr5-GFP expression”. The “cell proliferation, effect of addition” value [1] was “promotes the proliferation of Lgr5 inner ear progenitor cells” and the “effect on differentiation of hair cells” value [2] was “inhibit the differentiation of hair cells”.
For `[H]/N=C(/N)N[C@H]1[C@H](O)[C@@H](O)[C@H](O[C@@H]2O[C@@H](C)[C@](O)(C=O)[C@H]2O[C@@H]2O[C@@H](CO)[C@H](O)[C@@H](O)[C@@H]2NC)[C@@H](N/C(N)=N\[H])[C@@H]1O` [streptomycin], the “incidence of vestibular impairment” value (patients; 1 gram per day) is given as 25% and the “patients with some vestibular impairment” value (patients; 2 grams daily for 60 to 120 days) is given as ~75%.
